Results taken from paper PMC12095047, “Transport of phenoxyacetic acid herbicides by PIN-FORMED auxin transporters” (Nature Plants, 2025).
Several values for one entry are separate records, joined by “and”; a condition that tells them apart may be missing. Equal values may be shown once. Read-outs that look alike come from different tables or passages of the source.

Tests used:
PIN8 = molecular target: T1, PIN8 (Arabidopsis thaliana, UniProt Q9LFP6); test: SSM electrophysiology, KD by inhibition of the NPA binding current
T1 construct: made in house
T1 sequence (Q9LFP6 1-367): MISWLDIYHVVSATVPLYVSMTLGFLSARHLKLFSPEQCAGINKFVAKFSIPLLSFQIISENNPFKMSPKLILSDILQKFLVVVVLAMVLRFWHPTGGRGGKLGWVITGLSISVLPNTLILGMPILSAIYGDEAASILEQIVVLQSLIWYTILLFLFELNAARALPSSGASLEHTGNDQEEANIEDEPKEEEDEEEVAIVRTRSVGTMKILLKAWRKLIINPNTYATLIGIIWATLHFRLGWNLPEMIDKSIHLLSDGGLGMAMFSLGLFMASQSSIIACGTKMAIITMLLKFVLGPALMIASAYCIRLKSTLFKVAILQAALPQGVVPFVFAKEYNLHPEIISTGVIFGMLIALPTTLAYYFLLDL
Protocol: (§1) SSM, using a SURFE2R N1 from Nanion Technologies, was conducted as described. In brief, soy polar lipid mix (38% phosphatidyl choline, 30% phosphatidyl ethanolamine, 18% phosphatidyl inositol, 7% phosphatidic acid and 7% other soy lipids) and 1-palmitoyl-2-oleoyl-sn-glycero-3-phosphocholin were purchased from Avanti. Liposomes were prepared in Ringer solution without Ca^2+ (115 mM NaCl, 2.5 mM KCl, 1 mM NaHCO3, 10 mM HEPES pH7.4, 1 mM MgCl2) and homogenized using a Lipsofast (Avestin) with a […]. Triton X-100 was added to the liposomes to a final concentration of 1% (v/v). Protein was added to liposomes to a calculated lipid-to-protein ratio (LPR) of 10 unless stated otherwise. The detergent was removed using 400 mg ml^−1 Bio Beads (BioRad) overnight at 4 °C in a rotary shaker. Proteoliposomes were frozen in liquid nitrogen and kept at −80 °C until use. Proteoliposomes were diluted 1:5 in Ringer solution without Ca^2+, sonicated five times and then applied to the sensors by centrifugation (30 min, 3,000 g, 4 °C). Non-activating buffer was Ringer solution without Ca^2+ as described unless specified otherwise, and activating buffer contained the substrate of interest. In most instances we used a single-solution exchange experiment. In this case proteoliposomes, immobilized on the supported membrane, are kept in non-activating buffer as specified. At the beginning of the experiment the non-activating buffer is replaced with fresh identical non-activating buffer, and after 1 s, activating buffer (same buffer containing substrate) is added. After another second, the buffer is replaced with non-activating buffer again. Current response is recorded throughout the entire 3 s. For competition or inhibition, the respective compound was present in non-activating and activating solutions. Each experiment was performed on at least two individual sensors. On each sensor each measurement consists of three technical replicates where the mean is calculated. KD values were determined as described previously. Briefly, the binding current induced by 100 µM NPA was recorded in the presence of different concentrations of the substrate under investigation ranging between 0 µM and 1,000 µM present in the activating solution and the non-activating solution (Extended Data Fig. 5b). […] The maximum peak current was then plotted as a function of the concentration of the substrate under investigation and plotted against the degree of inhibition and fitted with a one-site binding model using GraphPad Prism V10.4.1 The half maximal concentration corresponds to the KD of the substrate under investigation.

[1] = molecular target: T2, wild-type PIN8 proteoliposomes (Arabidopsis thaliana, UniProt Q9LFP6); test: SSM electrophysiology, peak width (FWHM) of current response at LPR10 and LPR50; type: biochemical; settings: for Rel. FWHM (% of LPR10): replicates
T2 construct: made in house
T2 sequence (Q9LFP6 1-367): T1 sequence (Q9LFP6 1-367)
Protocol: as §1

A. thaliana PIN8 = molecular target: T3, A. thaliana PIN8 (Arabidopsis thaliana, UniProt Q9LFP6); test: SSM electrophysiology, peak current response on PIN8 proteoliposomes; type: biochemical; settings: 100 μM 2,4-D, 20 µM NPA
T3 construct: made in house
T3 sequence (Q9LFP6 1-367): T1 sequence (Q9LFP6 1-367)
Protocol: as §1

PIN8 N223A = molecular target: T4, PIN8 N223A (Arabidopsis thaliana, UniProt Q9LFP6, N223A); type: biochemical; settings: PIN8 N223A, Michaelis–Menten fit
T4 construct: made in house
T4 sequence (Q9LFP6 whole entry N223A): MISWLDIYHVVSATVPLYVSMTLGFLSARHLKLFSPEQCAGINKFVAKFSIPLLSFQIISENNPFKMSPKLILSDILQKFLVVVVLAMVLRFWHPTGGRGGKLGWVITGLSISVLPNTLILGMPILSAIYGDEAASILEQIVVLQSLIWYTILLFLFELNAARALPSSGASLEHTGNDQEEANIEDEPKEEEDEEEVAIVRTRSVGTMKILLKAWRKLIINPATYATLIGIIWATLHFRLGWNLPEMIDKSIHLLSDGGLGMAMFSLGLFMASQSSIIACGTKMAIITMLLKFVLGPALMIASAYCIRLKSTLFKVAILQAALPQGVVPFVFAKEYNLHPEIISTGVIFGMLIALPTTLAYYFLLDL
Protocol: as §1
The protocol for expression and purification of AtPIN8 protein (Uniprot: Q9LFP6) in lauryl maltose neopentyl glycol was described previously. All point mutants were generated using Q5 Site-Directed mutagenesis kit (New England Biolabs). The C-flat Holey Carbon grids (CF-1.2/1.3, Cu-300 mesh) were glow-discharged for 45 s at 15 mA in a GloQube Plus (Quorum). […] After 1 h of incubation on ice, the sample was centrifuged at 16,000 g for 15 min before blotting to remove precipitation. A drop of 4 µl of each sample was applied to the glow-discharged grids, blotted with a Vitrobot Mark IV (ThermoFisher Scientific) using the following settings (temperature 4 °C, 100% humidity, blot time of 4 s, blot force −1) and vitrified in liquid ethane.

[2] = 100 µM substrate, 100 µM NPA, individual sensors, read-out: Rel. Inhibition of NPA peak currents
[3] = 250 µM substrate, 100 µM NPA, individual sensors, read-out: Rel. Inhibition of NPA peak currents
[4] = 500 µM substrate, 100 µM NPA, individual sensors, read-out: Rel. Inhibition of NPA peak currents
[5] = 1000 µM substrate, 100 µM NPA, individual sensors, read-out: Rel. Inhibition of NPA peak currents
[6] = sheet F2A (Fig. 2a, KD of substrate binding), individual sensors, read-out: Peak current
[7] = Peak current, sheet F2A (Fig. 2a, KD of substrate binding), individual sensors
[8] = read-out: Rel. Inhibition of NPA peak currents, 50 µM substrate, 100 µM NPA, individual sensors
[9] = read-out: Rel. Inhibition of NPA peak currents, 100 µM substrate, 100 µM NPA, individual sensors
[10] = read-out: Rel. Inhibition of NPA peak currents, 250 µM substrate, 100 µM NPA, individual sensors
[11] = read-out: Rel. Inhibition of NPA peak currents, 500 µM substrate, 100 µM NPA, individual sensors
[12] = read-out: Rel. Inhibition of NPA peak currents, 1000 µM substrate, 100 µM NPA, individual sensors
[13] = 20 µM substrate, 100 µM NPA, individual sensors, read-out: Rel. Inhibition of NPA peak currents
[14] = 50 µM substrate, 100 µM NPA, individual sensors, read-out: Rel. Inhibition of NPA peak currents

Row | Compound | inhibition at 100 µM (PIN8; [2]) | inhibition at 250 µM (PIN8; [3]) | inhibition at 500 µM (PIN8; [4]) | inhibition at 1000 µM (PIN8; [5]) | Kd (PIN8; [6]) | binding affinity to PIN8 in words (PIN8) | Kd (PIN8; [7]) | inhibition at 250 µM (PIN8; [10]) | inhibition at 500 µM (PIN8; [11]) | inhibition at 1000 µM (PIN8; [12]) | Rel. FWHM (% of LPR10) ([1]; LPR10) | Rel. FWHM (% of LPR10) ([1]; LPR50) | inhibition at 20 µM (PIN8; [13]) | inhibition at 50 µM (PIN8; [14]) | other results
1 | Cc1ccc(OCC(=O)O)cc1 [4-MPA, 4-methylphenoxyacetic acid] | 12.1% | 25.7% | 40.8% | 58.3% | 710 µM and 614 µM and 521 µM | – | – | – | – | – | – | – | – | – | inhibition at 2000 µM (PIN8; 2000 µM substrate, 100 µM NPA, individual sensors, read-out: Rel. Inhibition of NPA peak currents): 72.8%
2 | O=C(O)COc1cc(Cl)c(Cl)cc1Cl [2,4,5-T, 2,4,5-trichlorophenoxyacetic acid] | – | – | – | – | 8.98 µM | highest affinity | 9.28 µM | 91% | 95.3% | 98.4% | – | – | – | – | inhibition at 1 µM (PIN8; read-out: Rel. Inhibition of NPA peak currents, 1 µM substrate, 100 µM NPA, individual sensors): 11.8%; inhibition at 5 µM (PIN8; read-out: Rel. Inhibition of NPA peak currents, 5 µM substrate, 100 µM NPA, individual sensors): 35.9%; inhibition at 20 µM (PIN8; read-out: Rel. Inhibition of NPA peak currents, 20 µM substrate, 100 µM NPA, individual sensors): 65.7%; inhibition at 50 µM (PIN8; [8]): 78.2%; inhibition at 100 µM (PIN8; [9]): 87.3%
3 | Cc1cc(Cl)ccc1OCC(=O)O [MCPA, 2-methyl-4-chlorophenoxyacetic acid] | – | – | – | – | – | intermediate affinity | 149 µM and 159 µM and 103 µM | 65.4% | 78.3% | 88.6% | – | – | – | – | inhibition at 50 µM (PIN8; [8]): 25.1%; inhibition at 100 µM (PIN8; [9]): 41.7%
4 | O=C(O)c1ccccc1C(=O)Nc1cccc2ccccc12 [NPA, 1-N-naphthylphthalamic acid] | – | – | – | – | – | – | – | – | – | – | 0.9324 % of LPR10 and 1.054 % of LPR10 and 1.014 % of LPR10 | 0.6892 % of LPR10 and 0.7297 % of LPR10 and 0.7703 % of LPR10 | – | – | peak width of SSM-based current response as a function of lipid-to-protein ratio (LPR) ([1]; LPR10 versus LPR50): does not change with LPR; effect on the PIN8 current response to 2,4-D (A. thaliana PIN8): inhibited
5 | O=C(O)CCc1ccc(Cl)cc1Cl [2,4-DPP, 3-(2,4-dichlorophenyl)-propionic acid] | 63.6% | 77.8% | 77.9% | – | 18.1 µM and 22.4 µM and 23.3 µM | higher affinity than 2,4-D | – | – | – | – | – | – | 37.2% | 51.9% | inhibition at 5 µM (PIN8; 5 µM substrate, 100 µM NPA, individual sensors, read-out: Rel. Inhibition of NPA peak currents): 15.1%
6 | Cc1ccc(OCC(=O)O)c(C)c1 [2,4-DMPA, 2-(2,4-dimethylphenoxy)acetic acid] | 37% | 61.3% | 78.8% | 92.8% | 205 µM and 139 µM and 178 µM | – | – | – | – | – | – | – | 9.25% | 21.8% | Kd (PIN8; inhibition of peak current elicited by 100 µM NPA, read-out: KD of substrate binding by PIN8): 174 ± 33 µM
7 | O=C(O)COc1ccccc1Cl [2-CPA, 2-chlorophenoxyacetic acid] | 57% | – | 94.3% | 99.8% | 106 µM and 112 µM and 101 µM | high affinity, comparable to that of IAA and 2,4-D | – | – | – | – | 0.9412 % of LPR10 and 1.059 % of LPR10 and 1 % of LPR10 | 1.824 % of LPR10 (2×) and 1.235 % of LPR10 and 1.647 % of LPR10 | 19.9% | 33.3% | Imax (PIN8 N223A): 3 ± 0.1 nA and 2.6 ± 0.1 nA; EC50 (PIN8 N223A; No transport = model could not be fit, read-out: EC50 of peak current response): 263 µM
8 | O=C(O)COc1ccc(Cl)cc1Cl [2,4D] | – | – | – | – | – | – | – | – | – | – | 1.043 % of LPR10 (2×) and 0.913 % of LPR10 | 1.565 % of LPR10 and 1.304 % of LPR10 and 1.239 % of LPR10 and 1.63 % of LPR10 | – | – | –
9 | O=C(O)COc1ccccc1 [PA, phenoxyacetic acid] | – | – | – | – | 485 µM | – | 605 µM and 377 µM | 30.3% | 47.3% | 60.5% | – | – | – | – | –
10 | Cc1ccccc1OCC(=O)O [2-MPA, 2-methylphenoxyacetic acid] | 27.5% | 53.9% | 74.7% | 82.9% | 284 µM and 209 µM and 256 µM | – | – | – | – | – | – | – | – | 13% | –
